The record followed here is patent publication US20260325561A1, “4'-SUBSTITUTED NUCLEOSIDES AND NUCLEOTIDES AS ANTIVIRAL AGENTS” (THE SCRIPPS RESEARCH INSTITUTE, priority 2023, published 2026).

Data set [1] can be described thus: in vitro. To be noted: human, hep2 cells.
The test system of the next data set is SARS-CoV-2. As to the kind of experiment: microbe, parasite or virus in culture. It is filed as cell-based, SARS-CoV-2 strain USA-WA1/2020. The settings on record: Severe acute respiratory syndrome coronavirus 2, HeLa-ACE2, 24 h, read-out: SARS-CoV-2 / HeLa-ACE2 EC50.
A further data set has as its system HRV 14. As to the kind of experiment: microbe, parasite or virus in culture. It is filed as cell-based, Human Rhinovirus 14 strain 1059. To be noted: Rhinovirus B, H1-HeLa, 48 h, read-out: HRV / H1 HeLa B 14 EC50.
The nature of data set [2]: in vitro. To be noted: human, h1 hela cells.
The subject of a further data set is DENV-2. As to the kind of experiment: microbe, parasite or virus in culture. It is filed as cell-based, DENV-2 16681. To be noted: Dengue virus, DENV2, HepG2, 24 h, read-out: DENV-2 / HepG2 EC50.
The test system of a further data set is RSV A2. Put plainly: microbe, parasite or virus in culture. It is filed as cell-based. To be noted: human respiratory syncytial virus, HEp-2, 72 h, read-out: RSV A2 / Hep2 EC50.
A short description of data set [3]: in vitro. The settings on record: human, hepg2 cells.
The subject of another data set is HRV 16. Put plainly: microbe, parasite or virus in culture. It is filed as cell-based, Human Rhinovirus 16 strain 11757. To be noted: Rhinovirus A, H1-HeLa, 48 h, read-out: HRV / H1 HeLa A16 EC50.
A further data set deals with CHIKV. As to the kind of experiment: microbe, parasite or virus in culture. It is filed as cell-based, CHIKV strain 181/25. The settings on record: Chikungunya virus, HepG2, 24 h, read-out: CHIKV / HepG2 EC50.
Data set [4] can be described thus: in vitro. The settings on record: human, hela-ace2 cells.
A further data set can be described thus: Cytotoxicity, HFF. It is filed as cell-based. The settings on record: human, hff cells; read-out: HCMV/HFF CC50.
The next data set has as its system HCMV. Put plainly: HCMV/HFF antiviral assay. It is filed as cell-based. To be noted: Human betaherpesvirus 5, HFF.

Turning to `Nc1nc(F)nc2c1ncn2[C@@H]1O[C@](F)(CO)[C@@H](O)[C@H]1O` [Example 31, (2S,3S,4R,5R)-5-(6-amino-2-fluoro-9H-purin-9-yl)-2-fluoro-2-(hydroxymethyl)tetrahydrofuran-3,4-diol], the CC50 in “in vitro [1]” was under 1 µM; in the data set “in vitro [2]”, 1 to 10 µM. The EC50 in the data set on SARS-CoV-2 is 1 to 10 µM; in the data set with HRV 14 it was over 10 µM; in the data set with DENV-2, 0.1 to 1 µM; with RSV A2, over 10 µM; in the data set with HRV 16 it was over 10 µM; in the data set on CHIKV, 0.1 to 1 µM. The same compound returned a CC50 at 72 h in “in vitro [3]” of under 1 µM. This compound came in with a CC50 at 24 h in “in vitro [4]” of 1 to 10 µM.
On to `OC[C@@]1(F)O[C@@H](n2cc(Cl)c3cncnc32)[C@H](O)[C@@H]1O` [Example 36, (2S,3S,4R,5R)-5-(5-chloro-7H-pyrrolo[2,3-d]pyrimidin-7-yl)-2-fluoro-2-(hydroxymethyl)tetrahydrofuran-3,4-diol], for which the CC50 in “in vitro [1]” lay within 10 to 99 µM; in “in vitro [2]”, 10 to 99 µM; in “Cytotoxicity, HFF”, 1 to 10 µM. The EC50 was 0.1 to 1 µM in the data set on SARS-CoV-2; over 10 µM in the data set with HRV 14; under 0.1 µM in the data set with DENV-2; 1 to 10 µM with RSV A2; 0.1 to 1 µM in the data set with HCMV. This compound also had a CC50 at 72 h in the data set “in vitro [3]” of under 1 µM. In addition, the CC50 at 24 h in “in vitro [4]” fell in the range of 1 to 10 µM.
As for `Nc1ncnc2c1ccn2[C@@H]1O[C@](F)(CO)[C@@H](O)[C@]1(F)Cl` [Example 6, (2S,3R,4S,5R)-5-(4-amino-7H-pyrrolo[2,3-d]pyrimidin-7-yl)-4-chloro-2,4-difluoro-2-(hydroxymethyl)tetrahydrofuran-3-ol], the CC50 in “in vitro [1]” was over 99 µM; in “in vitro [2]”, over 99 µM; in “Cytotoxicity, HFF”, over 99 µM. For the same compound, the EC50 with SARS-CoV-2, with HRV 14, with DENV-2, in the data set on RSV A2 and in the data set with HCMV was over 10 µM in each case. The CC50 at 72 h in the data set “in vitro [3]” was over 99 µM. The same compound displayed a CC50 at 24 h in the data set “in vitro [4]” of over 99 µM.
As for `Nc1ncnc2c1c(CO)cn2[C@@H]1O[C@](F)(CO)[C@@H](O)[C@H]1O` [Example 17, (2S,3S,4R,5R)-5-(4-amino-5-(hydroxymethyl)-7H-pyrrolo[2,3-d]pyrimidin-7-yl)-2-fluoro-2-(hydroxymethyl)tetrahydrofuran-3,4-diol], the EC50 in the data set on SARS-CoV-2, in the data set on DENV-2 and with CHIKV was over 10 µM throughout. Also, the CC50 at 72 h in the data set “in vitro [3]” was 10 to 99 µM. Moreover, the CC50 at 24 h in the data set “in vitro [4]” is over 99 µM.
As to `Nc1ncnn2c([C@@H]3O[C@](F)(CO)[C@@H](O)[C@H]3O)cnc12` [Example 19, (2S,3S,4R,5S)-5-(4-aminoimidazo[2,1-f][1,2,4]triazin-7-yl)-2-fluoro-2-(hydroxymethyl)tetrahydrofuran-3,4-diol], the CC50 in the data set “in vitro [1]” and in “in vitro [2]” was 1 to 10 µM each time. Further, the EC50 is 1 to 10 µM in the data set on SARS-CoV-2; over 10 µM in the data set on HRV 14; 0.1 to 1 µM with DENV-2; over 10 µM in the data set with RSV A2; over 10 µM in the data set on HRV 16; 0.1 to 1 µM in the data set on CHIKV. In the data set “in vitro [3]”, this compound showed a CC50 at 72 h of under 1 µM. The same compound showed a CC50 at 24 h in the data set “in vitro [4]” of 1 to 10 µM.
With `[N-]=[N+]=N[C@]1(CO)O[C@@H](n2ccc3c(N)ncnc32)[C@H](O)[C@@H]1O` [Example 2, (2R,3S,4R,5R)-5-(4-amino-7H-pyrrolo[2,3-d]pyrimidin-7-yl)-2-azido-2-(hydroxymethyl)tetrahydrofuran-3,4-diol], the EC50 in the data set on SARS-CoV-2, in the data set with DENV-2 and in the data set with CHIKV was over 10 µM throughout. The compound further registered a CC50 at 72 h in “in vitro [3]” of over 99 µM. The CC50 at 24 h in the data set “in vitro [4]” is over 99 µM.
`O=c1[nH]cnc2c1ccn2[C@@H]1O[C@](F)(CO)[C@@H](O)[C@H]1O` [Example 16, 7-((2R,3R,4S,5S)-5-fluoro-3,4-dihydroxy-5-(hydroxymethyl)tetrahydrofuran-2-yl)-3,7-dihydro-4H-pyrrolo[2,3-d]pyrimidin-4-one]: the CC50 is over 99 µM in “in vitro [1]”; over 99 µM in “in vitro [2]”; over 99 µM in “Cytotoxicity, HFF”. Moreover, the EC50 with SARS-CoV-2, in the data set with HRV 14, with DENV-2, in the data set on RSV A2, in the data set with HRV 16 and in the data set with HCMV was over 10 µM each time. Besides, the CC50 at 72 h in “in vitro [3]” was over 99 µM. Further, the CC50 at 24 h in “in vitro [4]” is over 99 µM.
For `CCOc1nc(N)nc2c1ncn2[C@@H]1O[C@](F)(CO)[C@@H](O)[C@]1(F)Cl` [Example 66, (2S,3R,4S,5R)-5-(2-amino-6-ethoxy-9H-purin-9-yl)-4-chloro-2,4-difluoro-2-(hydroxymethyl)tetrahydrofuran-3-ol], the CC50 in the data set “in vitro [1]” and in the data set “in vitro [2]” was over 99 µM each time. The EC50 in the data set on SARS-CoV-2, with HRV 14, with DENV-2, in the data set on RSV A2 and with HCMV was over 10 µM each time. The CC50 at 72 h in “in vitro [3]” was over 99 µM. Further, the CC50 at 24 h in the data set “in vitro [4]” was over 99 µM.
Consider `Nc1ncnc2c1ccn2[C@@H]1C[C@](F)(CO)[C@@H](O)[C@H]1O` [Example 30, (1S,2S,3S,5R)-5-(4-amino-7H-pyrrolo[2,3-d]pyrimidin-7-yl)-3-fluoro-3-(hydroxymethyl)cyclopentane-1,2-diol], for which the CC50 was 1 to 10 µM in the data set “in vitro [1]” and 10 to 99 µM in “in vitro [2]”. The EC50 was over 10 µM with SARS-CoV-2; over 10 µM in the data set with HRV 14; over 10 µM in the data set with DENV-2; 0.1 to 1 µM in the data set with RSV A2; over 10 µM in the data set on HRV 16; over 10 µM in the data set on CHIKV. The CC50 at 72 h in the data set “in vitro [3]” is 10 to 99 µM. The CC50 at 24 h in “in vitro [4]” is 10 to 99 µM.
`N#C[C@]1(CO)O[C@@H](n2ccc3c(N)ncnc32)[C@H](O)[C@@H]1O` [Example 32, (3S,4R,5R)-5-(4-amino-7H-pyrrolo[2,3-d]pyrimidin-7-yl)-3,4-dihydroxy-2-(hydroxymethyl)tetrahydrofuran-2-carbonitrile]: the CC50 in the data set “in vitro [1]” and in “in vitro [2]” was over 99 µM throughout. Also, the EC50 with SARS-CoV-2, with HRV 14, in the data set on DENV-2, in the data set on RSV A2, in the data set on HRV 16 and with CHIKV was over 10 µM in each case. For the same compound, the CC50 at 72 h in “in vitro [3]” was over 99 µM. Further, the CC50 at 24 h in “in vitro [4]” is over 99 µM.
For the compound `CCOc1nc(N)nc2c1ncn2[C@@H]1O[C@](F)(CO)[C@@H](O)C1(F)F` [Example 60, (2S,3R,5R)-5-(2-amino-6-ethoxy-9H-purin-9-yl)-2,4,4-trifluoro-2-(hydroxymethyl)tetrahydrofuran-3-ol], the CC50 in “in vitro [1]” was over 99 µM; in “in vitro [2]”, over 99 µM; in the data set “Cytotoxicity, HFF”, over 99 µM. Moreover, the EC50 in the data set on SARS-CoV-2, with HRV 14, with DENV-2, in the data set on RSV A2 and with HCMV was over 10 µM in each case. The compound further showed a CC50 at 72 h in “in vitro [3]” of over 99 µM. Besides, the CC50 at 24 h in the data set “in vitro [4]” was over 99 µM.
As for `CCOc1nc(N)nc2c1ncn2[C@@H]1O[C@](F)(CO)[C@@H](O)[C@@]1(C)Cl` [Example 63, (2S,3R,4R,5R)-5-(2-amino-6-ethoxy-9H-purin-9-yl)-4-chloro-2-fluoro-2-(hydroxymethyl)-4-methyltetrahydrofuran-3-ol], the CC50 in the data set “in vitro [1]” and in the data set “in vitro [2]” was over 99 µM each time. Also, the EC50 with SARS-CoV-2, in the data set on HRV 14, with DENV-2, with RSV A2 and in the data set on HCMV was over 10 µM each time. In the data set “in vitro [3]”, this compound gave a CC50 at 72 h of 10 to 99 µM. The compound also showed a CC50 at 24 h in the data set “in vitro [4]” of over 99 µM.
Take `[N-]=[N+]=N[C@]1(CO)O[C@@H](n2ccc3c(N)ncnc32)[C@@](F)(Cl)[C@@H]1O` [Example 7, (2R,3R,4S,5R)-5-(4-amino-7H-pyrrolo[2,3-d]pyrimidin-7-yl)-2-azido-4-chloro-4-fluoro-2-(hydroxymethyl)tetrahydrofuran-3-ol]: the CC50 is over 99 µM in the data set “in vitro [1]”; over 99 µM in the data set “in vitro [2]”; over 99 µM in “Cytotoxicity, HFF”. The EC50 in the data set on SARS-CoV-2, in the data set on HRV 14, in the data set with DENV-2, in the data set with RSV A2 and with HCMV was over 10 µM each time. This compound registered a CC50 at 72 h in “in vitro [3]” of over 99 µM. In addition, in the data set “in vitro [4]”, the CC50 at 24 h is over 99 µM.
As to `CCOc1nc(N)nc2c1ncn2[C@@H]1O[C@](F)(COP(=O)(N[C@@H](C)C(=O)OC(C)C)Oc2ccccc2)[C@@H](O)C1(F)F` (stereo partly drawn) [Example 69, isopropyl ((((2S,3R,5R)-5-(2-amino-6-ethoxy-9H-purin-9-yl)-2,4,4-trifluoro-3-hydroxytetrahydrofuran-2-yl)methoxy)(phenoxy)phosphoryl)-L-alaninate], the CC50 in “in vitro [1]” and in the data set “in vitro [2]” was 10 to 99 µM each time. In addition, the EC50 is over 10 µM in the data set with SARS-CoV-2; over 10 µM in the data set on HRV 14; 1 to 10 µM in the data set on DENV-2; over 10 µM in the data set with RSV A2; over 10 µM with HCMV. The compound further yielded a CC50 at 72 h in “in vitro [3]” of 10 to 99 µM. Further, in “in vitro [4]”, the CC50 at 24 h lay within 10 to 99 µM.
